Measurements as given in patent publication US8304422B2, “Compositions and methods for inhibition of the JAK pathway” (Rigel Pharmaceuticals, Inc., priority 2007, dated 2012).

These molecules were tested on BaF3 V617F cells; UKE-1 (assay: Proliferation Assay (Cell Titer-Glo; Example 7)). Conditions: proliferation 72 hours, inhibit JAK2 activity, cell line (BaF3 V617F or UKE-1) not stated.
Assay type: cell-based
Experimental: BaF3 V617F cells are maintained and plated in RPMI with 10% FBS. Plating density for these cells is 1×10^5 cells/mL.
UKE-1 are maintained and plated in Iscove's DMEM containing 10% FBS, 10% equine serum, 1% penicillin/streptomycin and 1 uM hydrocortisone. Plating density for these cells is 0.4×10^6 cells/mL
The cells were resuspended in a corresponding medium at a required cell density (see above). 100μ of cell suspension was added to each well of a flat bottom 96 well white plate. The compound was serially diluted in DMSO from 5 mM in 3-fold dilutions, and then diluted 1:250 in the RPMI 1640 medium containing 5% FBS and pen/strep. 100 μL of resulting 2× compound solution was added per well in duplicate and the cells were allowed to proliferate for 72 hours at 37° C.
Proliferation was measured using Cell Titer-Glo. The substrate was thawed and allowed to come to room temperature. After removal of top 100 μL of medium from each well, 100 μL of the premixed Cell Titer-Glo reagent was added to each well. The plates were mixed on an orbital shaker for three minutes to induce lysis and incubated at ambient temperature for an additional five minutes to allow the signal to equilibrate. The Luminescence was read on the Wallac Plate Reader.
The results of the ability of the compounds of the invention to inhibit JAK2 activity, when tested in the above assay, are shown in the following Table XI wherein the level of activity (i.e., the IC50) for each compound is indicated in Table XI. The compound numbers in Table XI refers to the compounds disclosed herein as being prepared by the methods disclosed herein: […]

Molecule | IC50
O=S(=O)(NCc1cccc(Nc2nc(Nc3ccc(-c4cccnc4)cc3)ncc2Cl)c1)C1CC1 [II-194, 5-Chloro-N4-[3-(N-cyclopropylsulfonylamino)methylphenyl]-N2-[4-(3-pyridinyl)phenyl]-2,4-pyrimidinediamine] | 1340 nM
Cc1cnc(Nc2ccc(C3CCN(C)CC3)cc2)nc1Nc1ccc2c(c1)C(NS(=O)(=O)C1CC1)CC2 (racemic) [V-5, (+/−)-N4-[1-(Cyclopropylsulfonylamino)indan-6-yl]-5-methyl-N2-[4-(1-methyl-4-piperidinyl)pheny]-2,4-pyrimidinediamine] | 999 nM
Cc1cnc(Nc2ccc(N3CCN(C)CC3)cc2)nc1Nc1ccc(CNS(=O)(=O)NC2CC2)cc1 [II-171, N4-[4-((N-Cyclopropylamino)sulfonylamino)methylphenyl]-5-methyl-N2-[4-(4-methyl-1-piperazinyl)phenyl]-2,4-pyrimidinediamine] | 735 nM
CCCN1CCN(c2ccc(Nc3ncc(C)c(Nc4ccc(CCNS(=O)(=O)C5CC5)cc4)n3)c(C(F)(F)F)c2)CC1 [II-71] | 1400 nM
Cc1cc(CNS(=O)(=O)C2CC2)ccc1Nc1nc(Nc2ccc(N3CCN(C)CC3)c(C)c2)ncc1Cl [II-153, 5-Chloro-N4-[2-methyl-4-(N-cyclopropylsulfonylamino)methylphenyl]-N2-[3-methyl-4-(4-methyl-1-piperazinyl)phenyl]-2,4-pyrimidinediamine] | 3330 nM
5-Chloro-N2-[3,4-dimethyl-4-(2-(4-morpholinyl)ethoxy)phenyl]-N4-[4-((N-cyclopropylamino)sulfonylamino)methylphenyl]-2,4-pyrimidinediamine [II-170] | 40.2 nM
COc1c(Cl)cc(Nc2ncc(C)c(Nc3ccc4c(c3)C(NS(=O)(=O)C3CC3)CC4)n2)cc1Cl (racemic) [V-8, (+/−)-N4-[1-(Cyclopropylsulfonylamino)indan-6-yl]-N2-(3,5-dichloro-4-methoxyphenyl)-5-methyl-2,4-pyrimidinediamine] | 3030 nM
N2-[3,4-Dimethyl-4-(2-(4-morpholinyl)ethoxy)phenyl]-N4-[4-((N-cyclopropylamino)sulfonylamino)methylphenyl]-5-methyl-2,4-pyrimidinediamine [II-174] | 127 nM
5-Chloro-N4-[4-(N-Cyclopropylsulfonylamino)methylphenyl]-N2-[3-methyl-4-[(1S,4S)-5-methyl-2,5-diazabicyclo[2.2.1]hept-2-yl]phenyl]-2,4-pyrimidinediamine [II-185] | 110 nM
CN1CCN(c2ccc(Nc3ncc(Cl)c(Nc4ccc(CCNS(=O)(=O)C5CC5)cc4)n3)cn2)CC1 [II-53, 5-Chloro-N4[4-(N-cyclopropylsulfonylamino)ethylphenyl]-N2-[4-(4-methylpiperazino)pyrido]-2,4-pyrimidinediamine] | 1980 nM
CCS(=O)(=O)N1CCc2c(cccc2Nc2nc(Nc3ccc(N4CCN(C)CC4)nc3)ncc2Cl)C1 [VI-3, 5-Chloro-N2-[6-(4-methyl-1-piperazinyl)-3-pyridinyl]-N4-[1,2,3,4-tetrahydro-2-(ethylsulfonyl)-5-isoquinolinyl]-2,4-pyrimidinediamine] | 1270 nM
Cc1cnc(Nc2ccc(N3CCN(C)CC3)cc2)nc1Nc1cccc(S(=O)(=O)N(C)C)c1 [I-14, N4-[(3-(1,1-Dimethylamino)sulfonyl)phenyl]-5-methyl-N2-[4-(4-methyl-1-piperazinyl)phenyl]-2,4-pyrimidinediamine] | 225 nM
CCc1cnc(Nc2ccc(N3CCN(CC)CC3)cc2)nc1Nc1ccc(CNS(=O)(=O)C2CC2)cc1 [II-89, N4-[4-(N-Cyclopropylsulfonylamino)methylphenyl]-5-ethyl-N2-[4-(4-ethyl-1-piperazinyl)phenyl]-2,4-pyrimidinediamine] | 674 nM
Cc1cnc(Nc2ccc(N3CCN(C)CC3)nc2)nc1Nc1ccc(CCNS(=O)(=O)C2CC2)cc1 [II-69] | 1810 nM
5-Chloro-N2-[3,4-dimethyl-4-(2-(4-morpholinyl)ethoxy)phenyl]-N4-[2-methyl-4-((N-cyclopropylamino)sulfonylamino)methylphenyl]-2,4-pyrimidinediamine [II-183] | 142 nM
COc1c(Cl)cc(Nc2ncc(Cl)c(Nc3ccc(CNS(=O)(=O)N(C)C)cc3)n2)cc1Cl [II-94, 5-Chloro-N2-[3,5-dichloro-4-methoxyphenyl]-N4-[(4-(dimethylamino)sulfonylamino)methylphenyl]-2,4-pyrimidinediamine] | 13500 nM

Next, values leading:

IC50 | Molecule
323 nM | CCCOc1c(C)cc(Nc2ncc(C)c(Nc3ccc(CNS(=O)(=O)NC4CC4)cc3)n2)cc1C [II-165, N4-[4-((N-Cyclopropylamino)sulfonylamino)methylphenyl]-N2-(3,5-dimethyl-4-propoxyphenyl)-5-Methyl-2,4-pyrimidinediamine]
142 nM | COc1cc(Nc2ncc(Cl)c(Nc3ccc(CNS(=O)(=O)N(C)C)cc3)n2)cc(C)c1OC [II-91, 5-Chloro-N2-(3,4-dimethoxy-5-methylphenyl)-N4-[(4-(dimethylamino)sulfonylamino)methylphenyl]-2,4-pyrimidinediamine]
167 nM | CCOc1cc(Nc2ncc(Cl)c(Nc3ccc(CNS(=O)(=O)C4CC4)cc3)n2)cc(OC)c1OC [II-210, 5-Chloro-N4-[4-(N-cyclopropylsulfonylamino)methylphenyl]-N2-[3,4-dimethoxy-5-ethoxyphenyl]-2,4-pyrimidinediamine]
224 nM | 5-Chloro-N4-[4-(N-cyclopropylsulfonylamino)methylphenyl]-N2-[4-(N-methylpiperizin-4-yl)phenyl]-2,4-pyrimidinediamine [II-188]
238 nM | CCCOc1c(C)cc(Nc2ncc(Cl)c(Nc3ccc(CNS(=O)(=O)C4CC4)cc3)n2)cc1C [II-221, 5-Chloro-N4-[4-(N-cyclopropylsulfonylamino)methylphenyl]-N2-[3,5-dimethyl-4-(1-propoxy)phenyl]-2,4-pyrimidinediamine]
466 nM | 5-Chloro-N4-[3-(N-cyclopropylsulfonylamino)methylphenyl]-N2-[4-(N-methylpiperizin-4-yl)phenyl]-2,4-pyrimidinediamine [II-191]
63.6 nM | CCOc1c(C)cc(Nc2ncc(C)c(Nc3ccc(CNS(=O)(=O)NC4CC4)cc3)n2)cc1C [II-163, N4-[4-((N-Cyclopropylamino)sulfonylamino)methylphenyl]-N2-(3,5-dimethyl-4-ethoxyphenyl)-5-methyl-2,4-pyrimidinediamine]
276 nM | CCNS(=O)(=O)NCc1ccc(Nc2nc(Nc3ccc(N4CCN(C)CC4)cc3)ncc2C)cc1 [II-122, N4-[(4-(Ethylamino)sulfonylamino)methylphenyl]-5-methyl-N2-[4-(4-methyl-1-piperazinyl)phenyl]-2,4-pyrimidinediamine]
120 nM | 5-Chloro-N4-[4-(N-cyclopropylsulfonylamino)methylphenyl]-N2-[5-methyl-4-(N-methylpiperizin-4-yl)pyridin-3-yl]-2,4-pyrimidinediamine [II-225]
209 nM | CCNS(=O)(=O)NCc1cccc(Nc2nc(Nc3cc(C)c(OC)c(C)c3)ncc2C)c1 [II-133, N2-(3,5-Dimethyl-4-methoxyphenyl)-N4-[(3-(ethylamino)sulfonylamino)methylphenyl]-5-methyl-2,4-pyrimidinediamine]
473 nM | CCS(=O)(=O)N1CCc2c(cccc2Nc2nc(Nc3ccc(N4CCN(C)CC4)cc3)ncc2Cl)C1 [VI-1, 5-Chloro-N2-[4-(4-methyl-1-piperazinyl)phenyl]-N4-[1,2,3,4-tetrahydro-2-(ethylsulfonyl)-5-isoquinolinyl]-2,4-pyrimidinediamine]
354 nM | COc1c(C)cc(Nc2ncc(Cl)c(Nc3ccc(CNS(=O)(=O)NC4CC4)cc3C)n2)cc1C [II-175, 5-Chloro-N2-(3,5-dimethyl-4-methoxyphenyl)-N4-[2-methyl-4-((N-cyclopropylamino)sulfonylamino)methylphenyl]-2,4-pyrimidinediamine]
644 nM | Cc1nc2cc(Nc3ncc(Cl)c(Nc4cccc(CNS(=O)(=O)C5CC5)c4)n3)ccc2[nH]1 [III-7, 5-Chloro-N4-[3-(N-cyclopropylsulfonylaminomethyl)phenyl]-N2-[2-methylbenzamidazol-5-yl]-2,4-pyrimidinediamine]
114 nM | Cc1cnc(Nc2cc(C)c(OC(C)C)c(C)c2)nc1Nc1ccc(CNS(=O)(=O)C2CC2)cc1 [II-219, 5-Methyl-N4-[4-(N-cyclopropylsulfonylamino)methylphenyl]-N2-[3,5-dimethyl-4-(2-propoxy)phenyl]-2,4-pyrimidinediamine]
512 nM | CCNS(=O)(=O)NCc1ccc(Nc2nc(Nc3ccc(N4CCN(CC)CC4)cc3)ncc2C)cc1 [II-125, N4-[(4-(ethylamino)sulfonylamino)methylphenyl]-N2-[4-(4-ethyl-1-piperazinyl)phenyl]-5-methyl-2,4-pyrimidinediamine]
668 nM | Cc1cnc(Nc2ccc(-c3cccnc3)cc2)nc1Nc1ccc2c(c1)[C@H](NS(C)(=O)=O)CC2 [V-12, (1R)-5-Methyl-N4-[1-(methylsulfonyl)aminoindan-6-yl]-N2-[4-(3-pyridinyl)phenyl]-2,4-pyrimidinediamine]
